From patent publication US12509441B2, “Compounds used as kinase inhibitors and application thereof” (TYK MEDICINES (ZHENGZHOU), INC., priority 2020, dated 2025)
Where two headings read alike, the source gives them in different places.

Key:
[1] = system: H-1975 (EGFRL858R/T790M) cells; experiment: Cell proliferation inhibitory activity test (WST-8) of related EGFR mutations; type: cell-based; conditions: Homo sapiens, read-out: IC 50 (nM) H-1975 (EGFRL858/T790M)
PC9 (EGFRdel19) cells = experiment: as above; type: cell-based; conditions: 72 h, cell viability; read-out: IC 50 (nM) PC-9 (EGFRdel19)
[2] = target: EGFR exon 20 insertion mutant kinase D770-N771insNPG (Homo sapiens, UniProt P00533, INS770NPG); experiment: Kinase activity assay (33P-ATP filter-binding), EGFR exon 20 insertion mutant kinase D770-N771insNPG; type: biochemical; conditions: ATP Km concentration; 10 concentrations
[3] = target: EGFR exon 20 insertion mutant kinase A763_Y764insFHEA (Homo sapiens, UniProt P00533, INS763FHEA); experiment: Kinase activity assay (33P-ATP filter-binding), EGFR exon 20 insertion mutant kinase A763_Y764insFHEA; type: biochemical; conditions: for IC50: ATP Km concentration, 10 concentrations
[4] = target: T1, Ba/F3-FL-EGFR-V769-D770 ins ASV (Homo sapiens, UniProt P00533, DUP767-769, cells depend on it); experiment: Cell proliferation inhibitory activity test (CellTiter-Glo), EGFR exon 20 insertion mutation; type: cell-based; conditions: 72 h, read-out: Ba/F3-FL-EGFR IC50 (nM) V769-D770ins ASV
T1 construct: Ba/F3-FL-EGFR IC50 (nM) V769-D770ins ASV; other: 72 h; class symbols; Ba/F3-FL-EGFR IC50 (nM) V769-D770ins ASV

[5] = target: Ba/F3-FL-EGFR-D77-N771 ins SVD (Homo sapiens, UniProt P00533, DUP768-770, cells depend on it); experiment: as above; type: cell-based; conditions: 72 h, read-out: Ba/F3-FL-EGFR IC50 (nM) D77-N771ins SVD
[6] = target: Ba/F3-FL-EGFR-H773-V774 ins NPH (Homo sapiens, UniProt P00533, DUP771-773, cells depend on it); experiment: as above; type: cell-based; conditions: 72 h, read-out: Ba/F3-FL-EGFR IC50 (nM) H773-V774ins NPH
[7] = target: Ba/F3-FL-EGFR-A763-Y764 ins FQEA (Homo sapiens, UniProt P00533, INS763FQEA, cells depend on it); experiment: as above; type: cell-based; conditions: 72 h, read-out: Ba/F3-FL-EGFR IC50 (nM) A763-Y764ins FQEA
[8] = target: Ba/F3 (EGFRdel19/L858R/C797S) (Homo sapiens, UniProt P00533, C797S/L858R, cells depend on it, form not given); experiment: Cell proliferation inhibitory activity test (WST-8) of related EGFR mutations; type: cell-based; conditions: 72 h, cell viability; read-out: IC 50 (nM) Ba/F3 (EGFRdel19/L858/797s)

Compound	IC50 [2]	GI50 ([4]; class symbols)	GI50 ([5]; class symbols)	GI50 ([6]; class symbols)	GI50 ([7]; class symbols)	further results
C=CC(=O)Nc1cc(Nc2nccc(-c3cn(C)c4ccccc34)n2)c(OC)cc1N(C)CCN(C)C [AZD-9291, osimertinib, reference compound]	–	–	–	–	–	IC50 ([1]; NCI-H1975, 72 h): 20.2 nM; IC50 (PC9 (EGFRdel19) cells): 7.85 nM
[2H]C([2H])([2H])n1cc(-c2nc(Nc3cc(NC(=O)C=C)c(N(C)CCN(C)C)nc3OCC(F)(F)F)ncc2-c2nnc(C)o2)c2ccccc21 [Example 3]	1.48 nM	–	–	–	–	IC50 [3]: 6.07 nM
C=CC(=O)Nc1cc(Nc2ncc(-c3nnc(C)o3)c(-c3cn(C4CC4)c4ccccc34)n2)c(OCC(F)(F)F)nc1N(C)CCN(C)C [Example 4]	2.79 nM	–	–	–	–	IC50 [3]: 15.3 nM
C=CC(=O)Nc1cc(Nc2ncc(C(=O)OC(C)C)c(-n3ncc4c3Cc3ccccc3-4)n2)c(OC)cc1N(C)CCN(C)C [Example 6]	1.38 nM	–	–	–	–	IC50 [3]: 9 nM
C=CC(=O)Nc1cc(Nc2ncc(C(=O)OC(C)C)c(-n3cc4c(n3)Cc3ccccc3-4)n2)c(OC)cc1N(C)CCN(C)C [Example 7]	1190 nM	–	–	–	–	IC50 [3]: 5600 nM
C=CC(=O)Nc1cc(Nc2ncc(C(=O)N(C)S(C)(=O)=O)c(-c3cn(C)c4ccccc34)n2)c(OC)cc1N(C)CCN(C)C [Example 9]	1.83 nM	–	–	–	–	IC50 [3]: 10.4 nM
[2H]C([2H])([2H])n1cc(-c2nc(Nc3cc(NC(=O)C=C)c(N(C)CCN(C)C)nc3OCC(F)(F)F)ncc2CO)c2ccccc21 [Example 10]	7.66 nM	–	–	–	–	IC50 [3]: 36.4 nM
C=CC(=O)Nc1cc(Nc2ncc(C(=O)OC(C)C)c(-n3ncc4c3-c3ccccc3C4)n2)c(OC)cc1N(C)CCN(C)C [Example 11]	7360 nM	–	–	–	–	–
C=CC(=O)Nc1cc(Nc2ncc(C(=O)OC(C)C)c(-n3cc4c(n3)-c3ccccc3C4)n2)c(OC)cc1N(C)CCN(C)C [Example 12]	0.3 nM	–	–	–	–	IC50 [3]: 2.27 nM; activity relative to the compound with the optimal activity disclosed in WO2015195228A1 (TAK788) ([3]; EGFR exon 20 insertion mutant kinases of Table 4): 2 to 3 times
C=CC(=O)Nc1cc(Nc2nccc(-n3ncc4c3-c3ccccc3C4)n2)c(OC)cc1N(C)CCN(C)C [Example 13]	169 nM	–	–	–	–	IC50 [3]: 61.1 nM
C=CC(=O)Nc1cc(Nc2ncc(C(=O)OC(C)C)c(-c3nn(C)c4c3Cc3ccccc3-4)n2)c(OC)cc1N(C)CCN(C)C [Example 14]	10.1 nM	–	–	–	–	IC50 [3]: 44.6 nM
C=CC(=O)Nc1cc(Nc2ncc(C3=NOC(C)(C)N3)c(-c3cn(C)c4ccccc34)n2)c(OC)cc1N(C)CCN(C)C [Example 19]	–	> 50 nM	–	–	–	–
C=CC(=O)Nc1cc(Nc2ncc(C3=NOC(C)(C)O3)c(-c3cn(C)c4ccccc34)n2)c(OC)cc1N(C)CCN(C)C [Example 20]	–	> 50 nM	–	–	–	–
C=CC(=O)Nc1cc(Nc2ncc(-c3nnco3)c(-c3cn(C)c4ccccc34)n2)c(OC)cc1N(C)CCN(C)C [Example 21]	–	< 5 nM	–	–	–	–
C=CC(=O)Nc1cc(Nc2ncc(-c3nnc(C)o3)c(-c3cn(C)c4ccccc34)n2)c(OC)cc1N(C)C1(CN(C)C)CC1 [Example 22]	–	< 5 nM	–	–	–	–
C=CC(=O)Nc1cc(Nc2ncc(-c3nnc(C)o3)c(-c3cn(C)c4ccccc34)n2)c(OC)cc1N(C)CC1(N(C)C)CC1 [Example 23]	–	< 5 nM	< 5 nM	< 5 nM	< 5 nM	–
[2H]C([2H])([2H])n1cc(-c2nc(Nc3cc(NC(=O)C=C)c(N(C)CCN(C)C)cc3OC)ncc2-c2nnc(C)o2)c2ccccc21 [Example 24]	–	< 5 nM	< 5 nM	< 5 nM	< 5 nM	–
C=CC(=O)Nc1cc(Nc2ncc(-c3nnc(C)s3)c(-c3cn(C)c4ccccc34)n2)c(OC)cc1N(C)CCN(C)C [Example 25]	–	< 5 nM	5 to 50 nM	5 to 50 nM	< 5 nM	–
C=CC(=O)Nc1cc(Nc2ncc(-c3nnc(C)o3)c(-c3c[nH]c4ccccc34)n2)c(OC)cc1N(C)CCN(C)C [Example 26]	–	< 5 nM	< 5 nM	< 5 nM	< 5 nM	–

Further lines, with some results ahead:

IC50 [2]	GI50 ([4]; class symbols)	GI50 ([5]; class symbols)	GI50 ([6]; class symbols)	GI50 ([7]; class symbols)	Compound	further results
–	5 to 50 nM	–	–	–	C=C(F)C(=O)Nc1cc(Nc2ncc(-c3nnc(C)o3)c(-c3cn(C)c4ccccc34)n2)c(OC)cc1N(C)CCN(C)C [Example 27]	–
–	> 50 nM	–	–	–	C=CC(=O)Nc1cc(Nc2ncc(-c3nnc(C)o3)c(-c3cn(C)c4ccccc34)n2)c(OC)cc1N1C[C@H]2CN(C)C[C@H]2C1 [Example 28]	–
–	5 to 50 nM	< 5 nM	5 to 50 nM	< 5 nM	C=CC(=O)Nc1cc(Nc2ncc(-c3nnc(C(F)F)s3)c(-c3cn(C)c4ccccc34)n2)c(OC)cc1N(C)CCN(C)C [Example 29]	–
–	> 50 nM	–	–	–	C=CC(=O)Nc1cc(Nc2ncc(-c3nnc(C)o3)c(-c3cn(C)c4ccccc34)n2)c(OC)cc1N(C)C1CC2(C1)CN(C)C2 [Example 30]	–
–	< 5 nM	–	–	–	C=CC(=O)Nc1cc(Nc2ncc(-c3nnc(C(C)C)o3)c(-c3cn(C)c4ccccc34)n2)c(OC)cc1N(C)CCN(C)C [Example 31]	–
–	5 to 50 nM	–	–	–	C=CC(=O)Nc1cc(Nc2ncc(-c3nnc(C)o3)c(-c3cn(C)c4ccccc34)n2)c(OC)cc1N(C)C1CCN(C)CC1 [Example 32]	–
–	< 5 nM	< 5 nM	< 5 nM	< 5 nM	C=CC(=O)Nc1cc(Nc2ncc(-c3nnc(CC)o3)c(-c3cn(C)c4ccccc34)n2)c(OC)cc1N(C)CCN(C)C [Example 33]	–
–	< 5 nM	< 5 nM	5 to 50 nM	< 5 nM	C=C(F)C(=O)Nc1cc(Nc2ncc(-c3nnc(C)o3)c(-c3cn(C)c4ccccc34)n2)c(OC)cc1N(C)[C@H]1[C@@H]2CN(C)C[C@@H]21 [Example 34]	–
–	< 5 nM	< 5 nM	< 5 nM	< 5 nM	C=CC(=O)Nc1cc(Nc2ncc(C(=O)OC(C)C)c(-c3cn(C)c4ccccc34)n2)c(OC)cc1N1C[C@H]2CN(C)C[C@H]2C1 [Example 36]	–
–	< 5 nM	< 5 nM	< 5 nM	< 5 nM	C=CC(=O)Nc1cc(Nc2ncc(C(=O)OC(C)C)c(-c3cn(C)c4ccccc34)n2)c(OC)cc1N(C)[C@H]1[C@@H]2CN(C)C[C@@H]21 [Example 40]	–
–	< 5 nM	< 5 nM	< 5 nM	< 5 nM	C=CC(=O)Nc1cc(Nc2ncc(C(=O)OC(C)C)c(-c3cn(C)c4ccccc34)n2)c(OC)cc1N(C)CC1(N(C)C)CC1 [Example 41]	–
–	< 5 nM	–	–	–	C=CC(=O)Nc1cc(Nc2ncc(C(=O)OC(C)C)c(-c3cn(C)c4ccccc34)n2)c(OC)cc1N(C)C1(CN(C)C)CC1 [Example 42]	–
–	< 5 nM	–	–	–	C=CC(=O)Nc1cc(Nc2ncc(C(=O)OC(C)C)c(-c3cn(C)c4ccccc34)n2)c(OC)cc1N(C)[C@H]1C[C@@H]2CN(C)C[C@@H]2C1 [Example 43]	–
–	< 5 nM	< 5 nM	< 5 nM	< 5 nM	[2H]C([2H])([2H])n1cc(-c2nc(Nc3cc(NC(=O)C=C)c(N(C)[C@H]4[C@@H]5CN(C)C[C@@H]54)cc3OC)ncc2C(=O)OC(C)C)c2ccccc21 [Example 47]	–
0.731 nM	–	–	–	–	C=CC(=O)Nc1cc(Nc2ncc(C(=O)OC(C)C)c(-c3cn(C)c4ccccc34)n2)c(OC)cc1N(C)CCN(C)C [TAK788, reference compound]	GI50 [5]: 3.9 nM; IC50 ([1]; NCI-H1975, 72 h, cell viability): 101 nM; GI50 [6]: 3.6 nM; GI50 [7]: 3.3 nM; GI50 [4]: 4 nM; IC50 (PC9 (EGFRdel19) cells): 24.1 nM; GI50 [8]: 2630 nM; IC50 [3]: 4.19 nM
